Test results from the CheMixHub viscosity set.
“And” between values parts separate entries of the source, which are not always exact repeats. Equal entries are not always repeated.

Assay: xn = mol fraction of the nth substance listed

Cc1cc(C)cc(C)c1 + O=C1CCCCC1
viscosity [mPa·s], 101.33 kPa
Details	x2 = 0.0996	x2 = 0.1988	x2 = 0.3039	x2 = 0.4042	x2 = 0.5038	x2 = 0.602	x2 = 0.7001	x2 = 0.8014	x2 = 0.8988
298.15 K	0.702	0.75	0.81	0.882	0.965	1.067	1.193	1.375	1.607
303.15 K	0.657	0.702	0.755	0.819	0.896	0.987	1.115	1.258	1.484
308.15 K	0.619	0.659	0.706	0.765	0.835	0.915	1.027	1.168	1.373

[Cl-].[Cl-].[Cl-].[Cl-].[Sn+4] + O=C(O)C(Cl)(Cl)Cl
323.15 K, 101 kPa
Details	viscosity [mPa·s]
x1 = 0.1911	2.66
x1 = 0.4139	1.448
x1 = 0.667	0.959

[Cl-].[Cl-].[Cl-].[Cl-].[Sn+4] + O=C(O)CCl
323.15 K, 101 kPa
Details	viscosity [mPa·s]
x1 = 0.025	3.305
x1 = 0.0506	3.944
x1 = 0.0951	4.193
x1 = 0.0957	4.1
x1 = 0.1491	4.17
x1 = 0.2041	3.921
x1 = 0.2511	2.927
x1 = 0.3456	2.003
x1 = 0.4928	1.41
x1 = 0.6663	0.948
x1 = 0.7708	0.836

CCCCCC[N+]1(C)CCOCC1.[Br-] + O=S1(=O)CCCC1
100 kPa, x1 = 0.0998
Details	viscosity [mPa·s]
293.15 K	42.16
298.15 K	34.36
303.15 K	28.35
308.15 K	23.7
313.15 K	20.06
318.15 K	17.1
323.15 K	14.72

O=C1CCCN1 + OCCCO
308.15 K, 101 kPa
Details	viscosity [mPa·s]
x1 = 0.1929	22.6
x1 = 0.3918	17.83
x1 = 0.4915	15.95
x1 = 0.5918	14.51
x1 = 0.6929	12.9
x1 = 0.897	10.06

O=C1CCCN1 + OCCO
101.33 kPa
Details	viscosity [mPa·s]
298.15 K, x1 = 0.04482	16.51
298.15 K, x1 = 0.1032	16.1
298.15 K, x1 = 0.2107	15.53
298.15 K, x1 = 0.3059	15.19
298.15 K, x1 = 0.3998	14.98
298.15 K, x1 = 0.4988	14.85
298.15 K, x1 = 0.6042	14.73
298.15 K, x1 = 0.6866	14.62
298.15 K, x1 = 0.7865	14.39
298.15 K, x1 = 0.9015	13.95
298.15 K, x1 = 0.9371	13.76
308.15 K, x1 = 0.05148	11.22
308.15 K, x1 = 0.2079	10.64
308.15 K, x1 = 0.3048	10.4
308.15 K, x1 = 0.3932	10.24
308.15 K, x1 = 0.4992	10.12
308.15 K, x1 = 0.9078	9.505
308.15 K, x1 = 0.952	9.341
318.15 K, x1 = 0.04423	7.91
318.15 K, x1 = 0.1016	7.746
318.15 K, x1 = 0.2104	7.505
318.15 K, x1 = 0.318	7.342
318.15 K, x1 = 0.3931	7.265
318.15 K, x1 = 0.4945	7.195
318.15 K, x1 = 0.592	7.15
318.15 K, x1 = 0.7035	7.089
318.15 K, x1 = 0.7949	7.002
318.15 K, x1 = 0.8888	6.855
318.15 K, x1 = 0.9417	6.74

CCCCCC[N+]1(C)CCOCC1.[Br-] + OCCOCCO
100 kPa, x1 = 0.2003
Details	viscosity [mPa·s]
293.15 K	88.12
298.15 K	66.83
303.15 K	51.75
308.15 K	40.85
313.15 K	32.85
318.15 K	26.75
323.15 K	22.17

CCCCCC[N+]1(C)CCOCC1.[Br-] + OCCOCCOCCO
100 kPa, x1 = 0.2005
Details	viscosity [mPa·s]
293.15 K	111.2
298.15 K	83.7
303.15 K	64.32
308.15 K	50.24
313.15 K	40.12
318.15 K	32.53
323.15 K	26.79

CN(c1ccccc1)c1ccccc1 + Oc1ccccc1
101 kPa
Details	viscosity [mPa·s]
293.25 K, x2 = 0.0915	7.08
293.25 K, x2 = 0.169	7.15
293.25 K, x2 = 0.2877	7.3
293.25 K, x2 = 0.4271	7.64
293.25 K, x2 = 0.5326	7.98
293.25 K, x2 = 0.6464	8.45
293.25 K, x2 = 0.7197	8.85
293.25 K, x2 = 0.7988	9.35
293.25 K, x2 = 0.8785	9.95
293.25 K, x2 = 0.942	10.48
303.15 K, x2 = 0.0926	5.1
303.15 K, x2 = 0.1813	5.13
303.15 K, x2 = 0.328	5.19
303.15 K, x2 = 0.5156	5.42
303.15 K, x2 = 0.6595	5.7
303.15 K, x2 = 0.7615	5.97
303.15 K, x2 = 0.8443	6.26
303.15 K, x2 = 0.9	6.5
303.15 K, x2 = 0.9463	6.73
313.15 K, x2 = 0.0926	3.785
313.15 K, x2 = 0.1813	3.76
313.15 K, x2 = 0.328	3.77
313.15 K, x2 = 0.5156	3.88
313.15 K, x2 = 0.6595	4.02
313.15 K, x2 = 0.7615	4.15
313.15 K, x2 = 0.8443	4.28
313.15 K, x2 = 0.9	4.4
313.15 K, x2 = 0.9463	4.51

CN(c1ccccc1)c1ccccc1 + Oc1ccccc1Cl
viscosity [mPa·s], 101 kPa
Details	x2 = 0.1862	x2 = 0.3326	x2 = 0.47	x2 = 0.5927	x2 = 0.6593	x2 = 0.7583	x2 = 0.8455	x2 = 0.9249
293.15 K	6.47	5.95	5.53	5.2	5.02	4.79	4.59	4.4
303.15 K	4.635	4.305	4.03	3.805	3.685	3.51	3.36	3.215
313.15 K	3.5	3.25	3.04	2.85	2.75	2.6	2.49	2.39

[Cl-].[Cl-].[Cl-].[Cl-].[Sn+4] + c1ccccc1
viscosity, 101 kPa
Details	293.15 K	313.15 K
x2 = 0.5	–	0.5435 mPa·s
x2 = 0.7	0.6136 mPa·s	0.485 mPa·s and 0.4846 mPa·s
